Tests used:
Type in all cases: in vivo
sorghum = experiment: Comprehensive test on growth regulation for sorghum by thidiazuron combined with brassinolide (plant height, stem diameter, 1000-grain weight, yield); conditions: mixtures 4.3 mg/kg, thidiazuron 4 mg/kg
Protocol: (§1) 1. Comprehensive Test on Growth Regulation for Sorghum by Thidiazuron Combined with Brassinolide
(§2) The thidiazuron and brassinolide were diluted with acetone to give a series of concentrations, and the stems and leaves of crops were sprayed to determine the effect of each concentration on crop growth in the field, so as to make a comprehensive evaluation with respect to the plant height and diameter, the root length, the disease resistance, the quality of fruits, and the yield.
Plant height control rate=(Plant height in water control group-Plant height in treatment group)/Plant height in water control group*100%
Stem diameter increase rate=(Stem diameter in water control group-Stem diameter in treatment group)/Stem diameter in water control group*100%
Increase rate in 1000-grain weight=(1000-grain weight in water control group−1000-grain weight in treatment group)/1000-grain weight in water control group*100%
Increase rate in yield per mu=(Yield per mu in water control group−Yield per mu in treatment group)/Yield per mu in water control group*100%

powdery mildew of oat = experiment: Disease index and prevention effect on powdery mildew in the oat field test; conditions: Examples 5.4 mg/kg, thidiazuron 5.0 mg/kg, brassinolide 0.4 mg/kg
Source text: (§3) 1. Comprehensive Test on Growth Regulation, Disease Resistance, and Yield Increase for Oat by Thidiazuron Combined with Brassinolide in Field
(§4) Application time: filling stage of oat, because diseases such as powdery mildew easily take place during the earing period.
(§5) Time of application: 1. Formulation examples of the present invention were sprayed, and the results were an average of three replicates.

leaf blight of sorghum = experiment: Disease index and prevention effect on leaf blight in the sorghum comprehensive test; conditions: early tasselling stage, mixtures 4.3 mg/kg, thidiazuron 4 mg/kg, brassinolide 0.3 mg/kg
Protocol: as §1, §2
Prevention effect=(Disease index in water control group-Disease index in treatment group)/Disease index in water control group*100%

oat = experiment: Comprehensive field test on growth regulation and yield increase for oat by thidiazuron combined with brassinolide; conditions: Examples 5.4 mg/kg, thidiazuron 5.0 mg/kg, brassinolide 0.4 mg/kg
Source text: as §3, §4, §5

[1] = early tasselling stage, vs water control, brassinolide 0.3 mg/kg
[2] = maturity and harvest period, brassinolide 0.3 mg/kg
[3] = maturity and harvest period, vs water control, brassinolide 0.3 mg/kg

SMILES: O=C(Nc1ccccc1)Nc1cnns1 [Thidiazuron, thidiazuron]
- Plant height (sorghum; early tasselling stage, 2 sprays on stems and leaves, 8 days apart, brassinolide 0.3 mg/kg (active ingredient)): 120.4 cm
- Stem diameter (sorghum; early tasselling stage, brassinolide 0.3 mg/kg): 2.56 cm
- Control rate (plant height) (sorghum; [1]): 3.4%
- Increase rate (stem diameter) (sorghum; [1]): 2.4%
- Weight of 1000 grains (sorghum; [2]): 22.1
- Yield (sorghum; [2]): 555.8 kg/667M^2
- Increase rate (weight of 1000 grains) (sorghum; [3]): 3.6%
- Increase rate (yield per mu) (sorghum; [3]): 3.5%
- Disease index of powdery mildew (powdery mildew of oat): 13.16
- Prevention effect (powdery mildew) (powdery mildew of oat; vs water control): 13.3%
- Disease index of leaf blight (leaf blight of sorghum): 10.4
- Prevention effect (leaf blight) (leaf blight of sorghum; vs water control): 24.1%
- Plant height (oat; 1 spray at filling stage, average of three replicates): 120.1 cm
- Stem diameter (oat): 2.38 mm
- Weight of 1000 grains (oat): 35.73
- Yield (oat): 627.3 667M2
- Control rate (plant height) (oat; vs water control): 4.5%
- Increase rate (stem diameter) (oat; vs water control): 3.2%
- Increase rate (weight of 1000 grains) (oat; vs water control): 4.2%
- Increase rate (yield) (oat; vs water control): 4.3%

Reference: patent US20180325115A1, “PLANT GROWTH REGULATOR COMPOSTION HAVING SYNERGISTIC EFFECT” (JIANGSU HUIFENG BIO AGRICULTURE CO., LTD., priority 2015, published 2018)
